Read-outs that look alike come from different tables or passages of the source.
Target: T1, dihydrolipoamide acyltransferase (DlaT) (Mycobacterium tuberculosis, UniProt P9WIS7)
T1 sequence (P9WIS7 1-553): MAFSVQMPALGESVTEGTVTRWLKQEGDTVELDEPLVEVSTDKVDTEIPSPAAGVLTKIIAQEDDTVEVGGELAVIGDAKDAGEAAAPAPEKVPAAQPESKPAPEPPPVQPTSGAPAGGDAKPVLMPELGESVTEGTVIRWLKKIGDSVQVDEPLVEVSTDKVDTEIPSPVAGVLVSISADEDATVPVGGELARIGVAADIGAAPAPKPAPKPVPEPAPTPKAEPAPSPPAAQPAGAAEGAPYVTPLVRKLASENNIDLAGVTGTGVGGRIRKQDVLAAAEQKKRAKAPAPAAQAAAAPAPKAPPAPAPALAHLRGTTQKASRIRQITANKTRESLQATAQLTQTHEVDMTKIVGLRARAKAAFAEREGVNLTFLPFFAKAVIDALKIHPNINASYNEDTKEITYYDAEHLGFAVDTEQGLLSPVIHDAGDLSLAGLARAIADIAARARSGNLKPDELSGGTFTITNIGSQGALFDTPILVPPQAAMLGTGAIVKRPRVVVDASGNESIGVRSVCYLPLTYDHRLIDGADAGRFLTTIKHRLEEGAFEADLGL
Experiment: DlaT inhibition (Dlat IC50); DTNB peroxidase assay with Lpd, DlaT and AhpD
Format: biochemical

[1] = Table 1, Compounds A1 to A294, read-out: Dlat IC50 category
[2] = Dlat IC50 category, Table 20, Prodrugs (Compounds T1 to T8)

Molecule | IC50 [1] [µM] | IC50 (Dlat IC50 category) [µM] | further results
CC(=O)NS(=O)(=O)c1ccc(N2C(=O)C(=Cc3ccc(-c4ccc(Cl)c(Cl)c4)o3)SC2=S)cc1 [Compound A30] | < 10 |  | 
Cc1ccccc1-c1ccc(C=C2SC(=S)N(c3cc(C(=O)O)ccc3F)C2=O)o1 [Compound A144] | < 10 |  | 
Cc1cc(Cl)ccc1-c1ccc(C=C2SC(=S)N(c3cc(C(=O)O)ccc3F)C2=O)o1 [Compound A170] | < 10 |  | 
O=C(O)c1cccc(N2C(=O)C(=Cc3ccc(-c4ccc(F)cc4)o3)SC2=S)c1 [Compound A211] | < 10 |  | 
O=C(O)c1ccc(F)c(N2C(=O)C(=Cc3ccc(-c4ccccc4Cl)o3)SC2=S)c1 [Compound A99] | < 10 |  | 
CN(C)S(=O)(=O)c1ccc(-c2ccc(C=C3SC(=S)N(C4CCC(C(=O)O)CC4)C3=O)o2)cc1 (stereo not drawn) [Compound C86, 4-{5-[5-(4-Dimethylsulfamoyl-phenyl)-furan-2-ylmethylene]-4-oxo-2-thioxo-thiazolidin-3-yl}-cyclohexanecarboxylic acid] |  | 11 to 40 | 
CSc1ccccc1-c1ccc(C=C2SC(=S)N(C3CCCC(C(=O)O)C3)C2=O)o1 (stereo not drawn) [Compound C30, 3-{5-[1-[5-(2-methylsulfanyl-phenyl)-furan-2-yl]-methylidene]-4-oxo-2-thioxo-thiazolidin-3-yl}-cyclohexanecarboxylic acid] |  | < 10 | 
CSc1cccc(-c2ccc(C=C3SC(=S)N(Nc4ccccc4C(=O)O)C3=O)o2)c1 [Compound D52, 2-{5-[1-[5-(3-methylsulfanyl-phenyl)-furan-2-yl]-methylidene]-4-oxo-2-thioxo-thiazolidin-3-ylamino}-benzoic acid] |  | < 10 | 
O=C(OCCCO)c1cccc(N2C(=O)C(=Cc3ccc(-c4ccccc4Cl)o3)SC2=S)c1 [Compound T2, 3-{5-[1-[5-(2-Chloro-phenyl)-furan-2-yl]-methylidene]-4-oxo-2-thioxo-thiazolidin-3-yl}-benzoic acid 3-hydroxy-propyl ester] |  |  | IC50 [2]: 41 to 80 µM
O=C(O)c1ccc(NN2C(=O)C(=Cc3ccc(-c4ccccc4Cl)o3)SC2=S)cc1 [Compound D20, 4-{5-[5-(2-Chloro-phenyl)-furan-2-ylmethylene]-4-oxo-2-thioxo-thiazolidin-3-ylamino}-benzoic acid] |  | 11 to 40 | 
O=C(O)C1CCCC(N2C(=O)C(=Cc3ccc(-c4ccccc4F)o3)SC2=S)C1 (stereo not drawn) [Compound C41, 3-{5-[1-[5-(2-fluoro-phenyl)-furan-2-yl]-methylidene]-4-oxo-2-thioxo-thiazolidin-3-yl}-cyclohexanecarboxylic acid] |  | < 10 | 
COc1ccc(C(=O)O)cc1N1C(=O)C(=Cc2ccc(Cc3ccccc3Cl)o2)SC1=S [Compound N2] |  |  | IC50 (Dlat IC50 category, Table 14, Compounds N1 to N3): 11 to 40 µM
CSc1cccc(-c2ccc(C=C3SC(=S)N(C4CCC(C(=O)O)CC4)C3=O)o2)c1 (stereo not drawn) [Compound C63, 4-{5-[1-[5-(3-methylsulfanyl-phenyl)-furan-2-yl]-methylidene]-4-oxo-2-thioxo-thiazolidin-3-yl}-cyclohexanecarboxylic acid] |  | < 10 | 
O=C(O)c1cc(N2C(=O)C(=Cc3ccc(-c4ccsc4Cl)o3)SC2=S)ccc1O [Compound Q5] |  |  | IC50 (Dlat IC50 category, Table 17, Compounds Q1 to Q9): 11 to 40 µM
O=C(O)c1ccccc1NN1C(=O)C(=Cc2ccc(-c3ccccc3F)s2)SC1=S [Compound D36, 2-{4-oxo-2-thioxo-5-[1-(5-2-fluoro-thiophen-2-yl)-methylidene]-thiazolidin-3-ylamino}-benzoic acid] |  | < 10 | 
NS(=O)(=O)c1cccc(N2C(=O)C(=Cc3ccc(-c4ccc(Cl)cc4)o3)SC2=S)c1 [Compound A27] | < 10 |  | 
O=C(OCCCCO)c1cccc(N2C(=O)C(=Cc3ccc(-c4ccccc4Cl)o3)SC2=S)c1 [Compound T1, 3-{5-[1-[5-(2-Chloro-phenyl)-furan-2-yl]-methylidene]-4-oxo-2-thioxo-thiazolidin-3-yl}-benzoic acid 4-hydroxy-butyl ester] |  |  | IC50 [2]: 41 to 80 µM
O=C(O)C1CCCC(N2C(=O)C(=Cc3ccc(-c4ccc(F)cc4F)o3)SC2=S)C1 (stereo not drawn) [Compound C7, 3-{5-[1-[5-(2,4-difluoro-phenyl)-furan-2-yl]-methylidene]-4-oxo-2-thioxo-thiazolidin-3-yl}-cyclohexanecarboxylic acid] |  | < 10 | 
Cc1ccc(C(=O)O)cc1N1C(=O)C(=Cc2ccc(-c3c(Cl)cccc3Cl)o2)SC1=S [Compound A114] | < 10 |  | 
O=C(O)c1cc(N2C(=O)C(=Cc3ccc(-c4ccccc4OCc4ccccc4)o3)SC2=S)ccc1F [Compound A279] | < 10 |  | 
O=C(O)c1ccc(F)c(N2C(=O)C(=Cc3ccccc3-c3ccccc3OCc3ccccc3Cl)SC2=S)c1 [Compound A197] | < 10 |  | 
Cc1ccccc1-c1cccc(C=C2SC(=S)N(C3CCCC(C(=O)O)C3)C2=O)c1 (stereo not drawn) [Compound C24, 3-{5-[1-(2′-methyl-biphenyl-3-yl)-methylidene]-4-oxo-2-thioxo-thiazolidin-3-yl}cyclohexanecarboxylic acid] |  | 11 to 40 | 
CC(C)(C)c1ccc(-c2ccc(C=C3SC(=S)N(c4cc(C(=O)O)ccc4F)C3=O)o2)cc1 [Compound A100] | < 10 |  | 

Molecule | IC50 [1] [µM] | IC50 (Dlat IC50 category) [µM] | further results
O=C(O)c1cccc(N2C(=O)C(=Cc3ccc(-c4ccccc4[N+](=O)[O-])o3)SC2=S)c1 [Compound A129] | > 41 |  | 
O=C(O)CN1C(=O)C(=Cc2ccc(-c3ccc(Cc4ccccc4)cc3)o2)SC1=S [Compound B30] |  | < 10 | 
O=C(O)c1ccccc1NN1C(=O)C(=Cc2ccc(-c3ccc(F)cc3F)o2)SC1=S [Compound D7, 2-{5-[1-[5-(2,4-difluoro-phenyl)-furan-2-yl]-methylidene]-4-oxo-2-thioxo-thiazolidin-3-ylamino}-benzoic acid] |  | < 10 | 
Cc1cccc(C)c1-c1ccc(C=C2SC(=S)N(c3cccc(C(=O)O)c3)C2=O)o1 [Compound A171] | 11 to 40 |  | 
O=C(O)CCCCCN1C(=O)C(=Cc2ccc(-c3ccc(Cl)cc3)o2)SC1=S [Compound B13] |  | < 10 | 
Cc1ccc(-c2cccc(C=C3SC(=S)N(C4CCCC(C(=O)O)C4)C3=O)c2)cc1 (stereo not drawn) [Compound C68, 3-{5-[1-(4′-methyl-biphenyl-3-yl)-methylidene]-4-oxo-2-thioxo-thiazolidin-3-yl}cyclohexanecarboxylic acid] |  | 41 to 80 | 
Cc1ccccc1-c1ccc(C=C2SC(=S)N(c3cc(C(=O)O)ccc3F)C2=O)s1 [Compound A188] | < 10 |  | 
O=C(O)c1cccc(N2C(=O)C(=Cc3ccc(-c4ccccc4Br)o3)SC2=S)c1 [Compound A132] | 11 to 40 |  | 
CN(C)c1ccc(-c2ccc(C=C3SC(=S)N(CC(=O)O)C3=O)o2)cc1 [Compound B84] |  | 11 to 40 | 
2-{5-[2-(2-Chloro-benzyloxy)-benzylidene]-4-oxo-2-thioxo-thiazolidin-3-ylamino}-benzoic acid [Compound D32] |  |  | IC50 (read-out: Dlat IC50 category): < 10 µM
O=C(O)C1CCCC(N2C(=O)C(=Cc3ccc(-c4ccccc4Oc4ccccc4)o3)SC2=S)C1 (stereo not drawn) [Compound C34, 3-{4-oxo-5-[1-[5-(2-phenoxy-phenyl)-furan-2-yl]-methylidene]-2-thioxo-thiazolidin-3-yl}-cyclohexanecarboxylic acid] |  | < 10 | 
O=C(O)c1cccc(N2C(=O)C(=Cc3ccc(-c4ccc(Cc5ccccc5)cc4)o3)SC2=S)c1 [Compound A3] | < 10 |  | 
N#Cc1c(F)cccc1-c1ccc(C=C2SC(=S)N(c3cncc(C(=O)O)c3)C2=O)o1 [Compound M4] |  |  | IC50 (Dlat IC50 category, Table 13, Compounds M1 to M4): 11 to 40 µM
O=C(O)c1ccccc1NN1C(=O)C(=Cc2ccc(-c3cccc(C(F)(F)F)c3)o2)SC1=S [Compound D3, 2-{4-oxo-2-thioxo-5-[1-[5-(3-trifluoromethyl-phenyl)-furan-2-yl]-methylidene]-thiazolidin-3-ylamino}-benzoic acid] |  | < 10 | 
O=C(O)c1ccccc1NN1C(=O)C(=Cc2ccc(-c3ccccc3Oc3ccccc3)o2)SC1=S [Compound D33, 2-{4-oxo-5-[1-[5-(2-phenoxy-phenyl)-furan-2-yl]-methylidene]-2-thioxo-thiazolidin-3-ylamino}-benzoic acid] |  | < 10 | 
CC(=O)c1ccc(-c2ccc(C=C3SC(=S)N(C4CCCC(C(=O)O)C4)C3=O)o2)cc1 (stereo not drawn) [Compound C40, 3-{5-[1-[5-(4-acetyl-phenyl)-furan-2-yl]-methylidene]-4-oxo-2-thioxo-thiazolidin-3-yl}-cyclohexanecarboxylic acid] |  | < 10 | 
Cc1ccc(-c2ccc(C=C3SC(=S)N(c4cc(C(=O)O)ccc4F)C3=O)o2)c(C)c1 [Compound A156] | < 10 |  | 
O=C(O)c1cccc(N2C(=O)C(=Cc3ccc(-c4ccccc4F)s3)SC2=S)c1 [Compound A195] | 11 to 40 |  | 
Cc1ccc(-c2ccc(C=C3SC(=S)N(c4cc(C(=O)O)cc(C(F)(F)F)c4)C3=O)cc2)cc1 [Compound A248] | < 10 |  | 
O=C(O)c1ccc(Cl)c(N2C(=O)C(=Cc3ccc(-c4ccc(Cl)c(Cl)c4)o3)SC2=S)c1 [Compound A107] | < 10 |  | 
O=C(O)CCCCCN1C(=O)C(=Cc2ccc(-c3ccc(Cc4ccccc4)cc3)o2)SC1=S [Compound B33] |  | 11 to 40 | 
O=C1C(=Cc2ccc(-c3ccccc3Cl)o2)SC(=S)N1c1cccc(O)c1 [Compound A49] | 11 to 40 |  | 

Source: patent publication US8338465B2, “Cyclic carboxylic acid rhodanine derivatives for the treatment and prevention of tuberculosis” (priority 2006, dated 2012)
